Assay results reported in patent US20170252442A1, “PHOTOHEXER COMPOUNDS AND PHARMACEUTICAL COMPOSITION AND USE THEREOF” (RAINBOW PHARMATECH LLC, priority 2014, published 2017).

What was measured:
[1] = tested on: SW-480 cells; assay: MTT assay, photodynamic therapy on SW-480 cells; type: cell-based, human
Excerpt: (§1) The cells in logarithmic growth phase were collected and inoculated on 24-well culture plates. When reaching 70%-80% confluence, cells were divided randomly into the following groups: control (the parallel control group without photosensitizer and irradiation), irradiation (irradiation treatment alone without photosensitizer); (photosensitizer treatment alone without irradiation), photodynamic treatment (treatment by photosensitizer in combination with irradiation). For the photosensitizer alone treatment group and photodynamic treatment group, an appropriate amount of Photohexer-1 (P-1) or Photohexer-2 (P-2) was respectively added away from light to give a final concentration of 0.8, 1.6, 3.2, 6.4 μM. Each group set 3 replicates. Cells were incubated with the active agent, different treatments were carried out according to the grouping. […] After treatment and digestion of each group of cells, it was inoculated into a 96-well plate at 100 μL/well, and four wells were set for each treatment. MTT assay was performed after 24 h from inoculation: 20 μL MTT solution was added to each well under the condition away from light, and the culture was continued for 4 hours. 150 μL DMSO was added to each well after discarding the supernatant. After 15 min of dissolution, the absorbance value (OD value) was measured using a microplate reader and the relative survival rate of cells was calculated according to the following formula: […]

[2] = tested on: SW-620 cells; assay: MTT assay, photodynamic therapy on SW-620 cells; type: cell-based, human
Excerpt: as §1

[3] = tested on: Caco2 cells; assay: MTT assay, photodynamic therapy on Caco2 cells; type: cell-based, human
Excerpt: as §1

[4] = tested on: MCF-7/ADR cells; assay: MTT assay, photodynamic therapy on MCF-7/ADR cells; type: cell-based, human
Excerpt: as §1

[5] = tested on: CT26 cells; assay: MTT assay, photodynamic therapy on CT26 cells; type: cell-based, murine
Excerpt: as §1

[6] = tested on: 7721 cells; assay: MTT assay, photodynamic therapy on 7721 cells; type: cell-based, human
Excerpt: as §1

[7] = tested on: 4T1 transplanted tumors; assay: Tumor-inhibition effect of P1 and P2-PDT on 4T1 xenografted mice; type: in vivo, Balb/c mice
Method: Experimental groups: blank control (2 mice), P-1 alone treatment (4 mg/kg, 8 mice), P-2 alone treatment (2 mg/kg, 8 mice), P-1 treatment (2 mg/kg, 4 mg/kg, 8 mice/group) combined with light irradiations, P-2 treatment (1 mg/kg, 2 mg/kg, 4 mg/kg, 8 mice/group) combined with light irradiations, 66 Balb/c mice in total.

[8] = Solubility determination in water; type: physicochemical; conditions: each ml of water; room temperature; read-out: solubility in water (amount dissolved by each ml of water)
Method: The solubility of Photohexer-1 and Photohexer-2 in water was determined by conventional methods in the art.

[9] = Storage stability determination; type: physicochemical; conditions: 3 months of storage in dark at 2-4
Method: The storage stability of Photohexer-1 and Photohexer-2 was determined by conventional methods in the art.

[10] = 0.8 μM alone treatment, without irradiation
[11] = 0.8 μM combined with 2.6 J/cm^2 light irradiation
[12] = 0.8 μM combined with 5.2 J/cm^2 light irradiation
[13] = 0.8 μM combined with 10.4 J/cm^2 light irradiation
[14] = 1.6 μM alone treatment, without irradiation
[15] = 1.6 μM combined with 2.6 J/cm^2 light irradiation
[16] = 1.6 μM combined with 5.2 J/cm^2 light irradiation
[17] = 1.6 μM combined with 10.4 J/cm^2 light irradiation
[18] = 3.2 μM alone treatment, without irradiation
[19] = 3.2 μM combined with 2.6 J/cm^2 light irradiation
[20] = 3.2 μM combined with 5.2 J/cm^2 light irradiation
[21] = 3.2 μM combined with 10.4 J/cm^2 light irradiation
[22] = 6.4 μM alone treatment, without irradiation
[23] = 6.4 μM combined with 2.6 J/cm^2 light irradiation
[24] = 6.4 μM combined with 5.2 J/cm^2 light irradiation
[25] = 6.4 μM combined with 10.4 J/cm^2 light irradiation

C=CC1=C(C)c2cc3[nH]c(cc4nc(cc5[nH]c(cc1n2)c(C)c5CCC(=O)[O-])C(CCC(=O)[O-])=C4C)c(C)c3C(C)OCCCCCC.[Na+].[Na+] (centres unmarked) [Photohexer P-1, 2-(1-hexyloxyethyl)-6,7-bis(propionatesodium)-1,3,5,8-tetramethyl-4-vinylporphyrin] showed a Cell survival rate [1, 10] of 101.14 ± 3.20%, a Cell survival rate [1, 11] of 99.72 ± 3.16% and a Cell survival rate [1, 12] of 95.61 ± 3.11%. The Cell survival rate [1, 13] was 89.28 ± 3.01%, the Cell survival rate [1, 14] was 100.83 ± 2.47% and the Cell survival rate [1, 15] was 97.08 ± 2.89%. For the same compound, the Cell survival rate [1, 16] was 94.55 ± 2.77%, the Cell survival rate [1, 17] was 85.85 ± 2.68% and the Cell survival rate [1, 18] was 98.02 ± 2.59%. For the same compound, the Cell survival rate [1, 19] was 96.00 ± 2.24%, the Cell survival rate [1, 20] was 85.27 ± 1.89% and the Cell survival rate [1, 21] was 65.70 ± 2.01%. The Cell survival rate [1, 22] was 91.27 ± 1.09%, the Cell survival rate [1, 23] was 77.99 ± 1.22% and the Cell survival rate [1, 24] was 65.38 ± 1.32%. It also gave a Cell survival rate [1, 25] of 57.31 ± 1.03%, a Cell survival rate [2, 10] of 101.33 ± 3.20% and a Cell survival rate [2, 11] of 100.74 ± 3.46%. The Cell survival rate [2, 12] was 99.53 ± 3.71%, the Cell survival rate [2, 13] was 94.65 ± 4.04% and the Cell survival rate [2, 14] was 100.99 ± 2.47%. The Cell survival rate [2, 15] was 96.64 ± 2.79%, the Cell survival rate [2, 16] was 91.84 ± 2.97% and the Cell survival rate [2, 17] was 87.51 ± 3.16%. For the same compound, the Cell survival rate [2, 18] was 98.23 ± 1.59%, the Cell survival rate [2, 19] was 91.39 ± 2.18% and the Cell survival rate [2, 20] was 87.50 ± 1.69%. The Cell survival rate [2, 21] was 82.58 ± 2.31%, the Cell survival rate [2, 22] was 94.83 ± 1.09% and the Cell survival rate [2, 23] was 86.70 ± 1.07%. For the same compound, the Cell survival rate [2, 24] was 75.53 ± 1.03%, the Cell survival rate [2, 25] was 68.33 ± 1.11% and the Cell survival rate [3, 10] was 99.34 ± 3.40%. It also gave a Cell survival rate [3, 11] of 95.31 ± 3.86%, a Cell survival rate [3, 12] of 93.10 ± 3.96% and a Cell survival rate [3, 13] of 88.18 ± 4.24%. It also gave a Cell survival rate [3, 14] of 97.36 ± 2.42%, a Cell survival rate [3, 15] of 91.33 ± 2.69% and a Cell survival rate [3, 16] of 89.01 ± 2.88%. For the same compound, the Cell survival rate [3, 17] was 87.63 ± 3.49%, the Cell survival rate [3, 18] was 95.34 ± 1.67% and the Cell survival rate [3, 19] was 89.49 ± 2.15%. It also gave a Cell survival rate [3, 20] of 87.46 ± 1.67%, a Cell survival rate [3, 21] of 84.32 ± 2.76% and a Cell survival rate [3, 22] of 83.33 ± 1.24%. It also gave a Cell survival rate [3, 23] of 81.65 ± 1.07%, a Cell survival rate [3, 24] of 74.26 ± 1.14% and a Cell survival rate [3, 25] of 66.34 ± 1.17%. The “cell toxicity” value [4] was “significant cell toxicity”, the Cell survival rate [4, 10] was 100.36 ± 3.70% and the Cell survival rate [4, 11] was 55.89 ± 3.97%. The Cell survival rate [4, 12] was 41.47 ± 4.88%, the Cell survival rate [4, 13] was 37.45 ± 4.34% and the Cell survival rate [4, 14] was 93.95 ± 2.47%. The Cell survival rate [4, 15] was 53.43 ± 2.96%, the Cell survival rate [4, 16] was 38.42 ± 2.51% and the Cell survival rate [4, 17] was 32.58 ± 3.54%. It also gave a Cell survival rate [4, 18] of 81.01 ± 1.58%, a Cell survival rate [4, 19] of 50.99 ± 2.31% and a Cell survival rate [4, 20] of 36.95 ± 1.89%. It also gave a Cell survival rate [4, 21] of 31.79 ± 2.65%, a Cell survival rate [4, 22] of 46.84 ± 1.02% and a Cell survival rate [4, 23] of 45.48 ± 1.04%. For the same compound, the Cell survival rate [4, 24] was 33.47 ± 1.41%, the Cell survival rate [4, 25] was 27.27 ± 1.07% and the “toxic side effects compared between P-1 and P-2” value [5] was “higher than those of P-2”. It also gave a Cell survival rate [5, 10] of 93.23 ± 3.43%, a Cell survival rate [5, 11] of 91.63 ± 3.46% and a Cell survival rate [5, 12] of 82.12 ± 4.98%. The Cell survival rate [5, 13] was 82.39 ± 4.63%, the Cell survival rate [5, 14] was 87.15 ± 2.45% and the Cell survival rate [5, 15] was 62.86 ± 2.29%. For the same compound, the Cell survival rate [5, 16] was 55.88 ± 2.95%, the Cell survival rate [5, 17] was 44.00 ± 3.29% and the Cell survival rate [5, 18] was 56.13 ± 1.69%. The Cell survival rate [5, 19] was 49.48 ± 2.06%, the Cell survival rate [5, 20] was 44.86 ± 1.57% and the Cell survival rate [5, 21] was 41.00 ± 2.66%. It also gave a Cell survival rate [5, 22] of 44.05 ± 1.26%, a Cell survival rate [5, 23] of 36.03 ± 1.17% and a Cell survival rate [5, 24] of 30.01 ± 1.07%. It also gave a Cell survival rate [5, 25] of 28.55 ± 1.47%, a Cell survival rate [6, 10] of 101.56 ± 4.08% and a Cell survival rate [6, 11] of 97.88 ± 4.08%. It also gave a Cell survival rate [6, 12] of 95.52 ± 3.42%, a Cell survival rate [6, 13] of 94.75 ± 4.13% and a Cell survival rate [6, 14] of 100.75 ± 4.14%. It also gave a Cell survival rate [6, 15] of 93.31 ± 3.99%, a Cell survival rate [6, 16] of 92.36 ± 2.91% and a Cell survival rate [6, 17] of 91.35 ± 3.59%. For the same compound, the Cell survival rate [6, 18] was 97.51 ± 3.98%, the Cell survival rate [6, 19] was 94.92 ± 3.80% and the Cell survival rate [6, 20] was 92.13 ± 2.77%. For the same compound, the Cell survival rate [6, 21] was 88.59 ± 2.96%, the Cell survival rate [6, 22] was 96.52 ± 3.94% and the Cell survival rate [6, 23] was 94.42 ± 3.87%. For the same compound, the Cell survival rate [6, 24] was 90.25 ± 4.07%, the Cell survival rate [6, 25] was 84.98 ± 1.97% and the “toxic and side effects” value ([6]; alone or in combination with light irradiation) was “no obvious toxic and side effects”. The “toxic effects of photosensitizer alone” value ([7]; 4 mg/kg alone, without irradiation, 4T1 tumor-bearing mice) was “did not show significant toxic effects”, the tumor inhibition rate ([7]; 4 mg/kg combined with light irradiation (50 J/cm^2), day 22 after treatment, 4T1 tumor-bearing mice) was 25.6% and the “photosensitizer activity on growth of 4T1 transplanted tumors” value ([7]; combined with 50 J/cm^2 irradiation) was “obvious dose-dependent activity”. The solubility [8] was roughly 3300 µg/mL and the “storage stability (content change by HPLC test)” value [9] was “no content change”.
